Four molecules from patent US20030138433A1, “Autologous adoptive immunotherapy with antigen-specific primed T cells or B cells to promote antigen-specific immune responses with an appropriate cytokine bias” (priority 1999, published 2003) can be followed below.

Experiment [1] concerns transgenic mice expressing a hen egg lysozyme (HEL)-specific T cell receptor (3A9) crossed with MHC class II transgenic mice. Put plainly: In vivo antigen pulse of 3A9 x MHC class II transgenic crosses, spleen cell analysis. The settings on record: 100 μg, six days after injection. The protocol: Mouse spleens were removed after sacrifice and placed into 4 ml PBS, 0.1% BSA in a petri dish. A single cell suspension was prepared using the frosted ends of two microscope slides. Cells were then transferred into a 15 ml tube. The cell suspension was underlayed with 2 ml Ficoll-paque and then centrifuged for 15 min. at 1,000×g. Lymphocytes at the interface were collected and washed 3× with ice-cold 15 ml PBS, 0.1% BSA. Cells were counted and resuspended to 1.6×10^7 viable cells per ml concentration, in RPMI 1640 25 mM HEPES, 50 μM 2-ME, 10% FBS, 1× L-glutamine, 1× sodium pyruvate, 1× nonessential amino acids.
The FACScalibur, flow cytometer was calibrated using Becton-Dickinson calibration beads prior to each four color analysis run. Cells also were analyzed on a FACScan™ with CellQuest software (Becton Dickinson, San Jose, Calif.).
Two different crosses between the mice carrying the different transgenes were generated. Transgenic mice expressing a hen egg lysozyme (HEL)-specific T cell receptor (3A9) were crossed with: (i) the transgenic mice expressing wild type MIIC class II on a null MHC class II background, and (ii) the transgenic mice expressing hybrid MHC class II-MCH class I molecules on a null MHC class II background.
Mice, 4-8 weeks old, generated from the above-identified crosses were pulsed in vivo with an injection of 100 μg total of antigen (HEL). Six days after injenction, the cells from splenes were harvested, as described above, and analyzed. […] Additionally, the “tail” of MHC class II is not necessary for the proper loading and presentation of antigen.

Another experiment deals with L1210 cells. In words: Methotrexate-induced cell death (flow cytometry, ethidium bromide, DNA fragments). Format: cell-based, mouse (BALB/c-derived). The protocol:
(§1) L1210 and L1210/DDP cells were treated overnight with 5×10^−7 M methotrexate. […] The forward scatter low populations took up ethidium bromide differentially. The L1210 cells took up a moderate amount of ethidium bromide whereas the L1210/DDP cells took up large amounts. […] This latter phenotype—loss in forward scatter and membrane permeability with no “DNA laddering”—is the hall mark of oncosis.
(§2) L1210 and L1210/DDP cells were treated with a dose of methotrexate that produced moderate amounts of cell death. (Even though L1210/DDP is “methotrexate resistant”, the drug does induce cell death in the cultures; the surviving cells which grow out of the culture are responsible for the lines “drug resistant” appellation).

The subject of the next experiment is L1210/DDP cells. Described as above. Format: cell-based, mouse (BALB/c-derived). The protocol: as §1, §2
Experiment [2] relates to Total splenic B cells from C3H, AKR, C3H.lpr and MRL.gld mice. Put plainly: DNA content of total splenic B cells (saponin/propidium iodide flow cytometry). Type of experiment: cell-based. Conditions: B cells from lpr animals compared with normal animals. A general note: Flow cytometry measures light scatter and fluorescence of single cells or particles in a stream.
Experimental: Total splenic B cells were isolated from C3H, AKR, C3H.lpr, and MRL.gld mice. The cells were cultured overnight, harvested, permeabilized in saponin, stained with propidium iodide (PI) which intercalates into DNA, and analyzed by flow cytometry. Because the majority of cells in these preparations are either resting or “growth arrested,” the predominant peak in the untreated samples is the G0/G1 peak (2N DNA).
Experiment [3] relates to Splenic B cells from AKR mice (resting, in vitro primed, in vivo activated). In words: Apoptotic death of splenic B cells scored by nucleosome-sized DNA fragments (densitometry). Type of experiment: cell-based. The settings on record: 10 μM, primed and activated B cells.
Experimental: Splenic B cells from AKR mice were separated on a Percoll density gradient and two fractions were collected: small, high-density, resting B cells were obtained from the 1.079<ρ<1.085 g/ml interface and large in vivo activated B cells were collected at the BSS<ρ<1.066 g/ml interface. In vitro primed B cells were obtained by treating resting B cells with 16U recombinant IL-4 and by incubating them overnight on anti-Ig-coated plates. […] Apoptotic death was scored by quantitating the formation of nucleosome-sized DNA fragments by densitometry.
The mark [4] stands for this setting: 3A9×wild type MHC class II on null background.

Regarding hen egg lysozyme [HEL], the “T cells in spleen” value in experiment [1] (3A9×hybrid MHC class II-MHC class I on null background) is “a CD4^+ T cell subset missing”. Further, in experiment [1] (setting [4]), the “MHC class II bearing B cells in spleen” value is on record as “no MHC class II bearing B cells” and the “T cells in spleen” value is “normal T cell numbers”.

As to `CN(Cc1cnc2nc(N)nc(N)c2n1)c1ccc(C(=O)N[C@@H](CCC(=O)O)C(=O)O)cc1` [methotrexate], the entries for the “mode of cell death” value in the experiment with L1210 cells (L1210) and with L1210/DDP cells were “die by apoptosis” and “die by oncosis”, respectively. The DNA fragments entry was “produced a ladder of nucleosome sized fragments indicative of apoptosis” in the experiment with L1210 cells (L1210, 5×10^−7 M overnight) and “did not” with L1210/DDP cells (5×10^−7 M overnight).

Consider `CC[C@H]1CN2CCc3cc(OC)c(OC)cc3[C@@H]2C[C@@H]1C[C@H]1NCCc2cc(OC)c(OC)cc21` [emetine], for which the “DNA fragmentation, lpr vs normal B cells” value in experiment [2] was “equally capable of fragmenting DNA”.

As for `CC(C)NCC(O)c1ccc(O)c(O)c1` (stereo not drawn) [isoproterenol], the induction of apoptosis result in experiment [3] was “induces apoptosis in all three populations”.
